Data on 17 compounds can be found in ChEMBL document CHEMBL1909046, “DrugMatrix in vitro pharmacology data”.

For experiment [1], the target named is Tyrosine-protein kinase Lck (Homo sapiens, UniProt P06239). Briefly: DRUGMATRIX: Protein Tyrosine Kinase, LCK enzyme inhibition (substrate: Poly(Glu:Tyr)). The format is cell-based, Insect cells. The following applies: insect cells, Not Active = under 50% inhibition at 10 µM.
A further experiment deals with T1, Adenosine receptor A3 (Homo sapiens, UniProt P0DMS8).
T1 sequence (P0DMS8 whole entry): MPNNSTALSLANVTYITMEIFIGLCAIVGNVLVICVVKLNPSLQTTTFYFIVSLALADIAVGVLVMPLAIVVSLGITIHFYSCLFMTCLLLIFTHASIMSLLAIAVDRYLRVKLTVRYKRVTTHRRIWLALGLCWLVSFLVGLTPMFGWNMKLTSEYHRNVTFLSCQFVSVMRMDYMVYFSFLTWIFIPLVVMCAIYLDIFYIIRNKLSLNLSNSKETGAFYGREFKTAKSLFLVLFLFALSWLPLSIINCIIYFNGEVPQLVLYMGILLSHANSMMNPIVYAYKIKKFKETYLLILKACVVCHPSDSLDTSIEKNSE
The format is cell membranes, CHO-K1, Membrane. To be noted: cho-k1.

Experiment [2] has as its target T2, Amine oxidase [flavin-containing] A (Homo sapiens, UniProt P21397).
T2 sequence (P21397 whole entry): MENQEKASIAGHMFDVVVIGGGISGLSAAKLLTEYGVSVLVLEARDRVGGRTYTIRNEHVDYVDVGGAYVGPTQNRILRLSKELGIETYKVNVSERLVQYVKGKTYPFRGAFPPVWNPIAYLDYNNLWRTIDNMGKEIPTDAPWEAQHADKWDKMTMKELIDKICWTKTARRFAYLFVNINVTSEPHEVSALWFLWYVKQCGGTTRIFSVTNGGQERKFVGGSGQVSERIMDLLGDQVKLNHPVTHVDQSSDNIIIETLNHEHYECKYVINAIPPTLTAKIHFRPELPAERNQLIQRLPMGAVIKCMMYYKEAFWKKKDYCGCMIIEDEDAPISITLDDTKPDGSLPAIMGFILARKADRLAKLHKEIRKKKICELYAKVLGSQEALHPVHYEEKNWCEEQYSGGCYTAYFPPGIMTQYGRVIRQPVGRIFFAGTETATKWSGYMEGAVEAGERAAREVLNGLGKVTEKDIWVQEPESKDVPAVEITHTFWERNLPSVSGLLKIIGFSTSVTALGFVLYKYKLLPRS
Kind of experiment: DRUGMATRIX: Monoamine Oxidase MAO-A enzyme inhibition (substrate: Kynuramine). Also on record: species or system BTI-TN-5B1-4. To be noted: bti-tn-5b1-4; Not Active = under 50% inhibition at 10 µM.

Experiment [3] can be described thus: DRUGMATRIX: Imidazoline I2, Central radioligand binding (ligand: [3H] Idazoxan). The format is cell membranes, Rattus norvegicus, Wistar, Cerebral cortex, Membrane. To be noted: Not Active = under 50% inhibition at 10 µM.
For the next experiment, the target named is Histamine H2 receptor (Homo sapiens, UniProt P25021). The format is cell membranes, CHO-K1, Membrane. Further: in other assays of this panel Not Active means under 50% inhibition at 10 µM.
Sequence of Histamine H2 receptor (P25021 whole entry): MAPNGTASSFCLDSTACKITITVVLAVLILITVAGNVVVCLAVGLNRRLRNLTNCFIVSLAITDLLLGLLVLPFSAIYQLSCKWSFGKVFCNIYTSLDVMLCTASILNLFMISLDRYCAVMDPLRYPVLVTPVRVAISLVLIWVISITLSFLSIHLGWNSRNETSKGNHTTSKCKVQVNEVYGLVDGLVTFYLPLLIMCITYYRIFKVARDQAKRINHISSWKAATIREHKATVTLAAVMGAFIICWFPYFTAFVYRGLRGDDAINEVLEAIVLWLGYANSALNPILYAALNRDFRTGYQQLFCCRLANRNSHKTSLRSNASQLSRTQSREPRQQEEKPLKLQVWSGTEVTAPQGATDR
For a further experiment, the target named is Melanocortin receptor 4 (Homo sapiens, UniProt P32245). The format is cell membranes, HEK293, Membrane. To be noted: hek293. Further: in other assays of this panel Not Active means under 50% inhibition at 10 µM.
Sequence of Melanocortin receptor 4 (P32245 whole entry): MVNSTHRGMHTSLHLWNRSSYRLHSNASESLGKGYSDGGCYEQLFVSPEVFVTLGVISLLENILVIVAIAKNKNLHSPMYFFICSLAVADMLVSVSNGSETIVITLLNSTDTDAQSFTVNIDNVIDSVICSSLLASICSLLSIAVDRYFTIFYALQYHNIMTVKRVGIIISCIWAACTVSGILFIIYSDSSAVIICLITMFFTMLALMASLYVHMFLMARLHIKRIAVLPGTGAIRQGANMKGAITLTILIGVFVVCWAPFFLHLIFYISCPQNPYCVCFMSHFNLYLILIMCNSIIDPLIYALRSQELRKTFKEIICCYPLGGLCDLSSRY

Sequence of Tyrosine-protein kinase Lck (P06239 whole entry): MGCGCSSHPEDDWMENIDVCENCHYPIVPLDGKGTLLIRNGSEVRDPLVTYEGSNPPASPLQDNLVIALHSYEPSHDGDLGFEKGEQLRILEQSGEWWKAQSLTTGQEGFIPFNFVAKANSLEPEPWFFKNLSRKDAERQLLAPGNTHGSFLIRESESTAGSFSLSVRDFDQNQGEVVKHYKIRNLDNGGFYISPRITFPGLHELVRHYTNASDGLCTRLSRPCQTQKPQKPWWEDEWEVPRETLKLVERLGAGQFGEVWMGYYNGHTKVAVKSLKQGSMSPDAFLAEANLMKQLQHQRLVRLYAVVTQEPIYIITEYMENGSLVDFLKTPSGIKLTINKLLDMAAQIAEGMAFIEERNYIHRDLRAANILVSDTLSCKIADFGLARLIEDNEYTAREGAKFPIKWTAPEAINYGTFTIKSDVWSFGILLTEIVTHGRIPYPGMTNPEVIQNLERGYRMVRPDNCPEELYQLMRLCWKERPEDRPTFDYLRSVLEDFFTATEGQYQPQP

Turning to `C[C@]12CCC(=O)C=C1CC[C@@H]1[C@@H]2CC[C@@]2(C)[C@H]1CC[C@]2(C)O` [METHYLTESTOSTERONE], the IC50 entry (in experiment [1]; on Adenosine receptor A3; in experiment [2]; in experiment [3]; on Histamine H2 receptor (cho-k1); at Melanocortin receptor 4) was “Not Active” throughout. In addition, in experiment [3], the Ki result is “Not Active”.
With `Cc1ccccc1N1C(=O)c2cc(S(N)(=O)=O)c(Cl)cc2NC1C` (centres undefined) [METOLAZONE], the IC50 entry (in experiment [1]; on Adenosine receptor A3; in experiment [2]; in experiment [3]; on Histamine H2 receptor (cho-k1); against Melanocortin receptor 4) was “Not Active” throughout. Further, the Ki result in experiment [3] is “Not Active”.
Consider `COCCc1ccc(OCC(O)CNC(C)C)cc1` (centres undefined) [METOPROLOL], for which the concentration for half-maximal inhibition (IC50) result (in experiment [1]; against Adenosine receptor A3; in experiment [2]; in experiment [3]; at Histamine H2 receptor (cho-k1); on Melanocortin receptor 4) was “Not Active” each time. In experiment [3], the Ki result is recorded as “Not Active”.
As for `CCn1cc(C(=O)O)c(=O)c2cc(F)c(N3CCNCC3)cc21` [NORFLOXACIN], the IC50 entry (in experiment [1]; at Adenosine receptor A3; in experiment [2]; in experiment [3]; at Histamine H2 receptor (cho-k1); at Melanocortin receptor 4) was “Not Active” each time. Besides, in experiment [3], the Ki result is given as “Not Active”.
As to `NC1=NC(=O)C(c2ccccc2)O1` (centres undefined) [PEMOLINE], the IC50 result (in experiment [1]; on Adenosine receptor A3; in experiment [2]; in experiment [3]; on Histamine H2 receptor (cho-k1); at Melanocortin receptor 4) was “Not Active” throughout. The Ki result in experiment [3] is “Not Active”.
Turning to `Nc1nc2c(ncn2CCC(CO)CO)c(=O)[nH]1` [PENCICLOVIR], the IC50 entry (in experiment [1]; on Adenosine receptor A3; in experiment [2]; in experiment [3]; on Histamine H2 receptor (cho-k1); on Melanocortin receptor 4) was “Not Active” throughout. The Ki result in experiment [3] is listed as “Not Active”.
Turning to `C=C(C)C1(O)OC(=O)C=C1OC` (centres undefined) [PENICILLIC ACID], the 50% inhibitory concentration (IC50) entry (in experiment [1]; against Adenosine receptor A3; in experiment [2]; in experiment [3]; against Histamine H2 receptor (cho-k1); against Melanocortin receptor 4) was “Not Active” each time. Further, the Ki entry in experiment [3] is given as “Not Active”.
Take `CC1(C)S[C@@H]2[C@H](NC(=O)Cc3ccccc3)C(=O)N2[C@H]1C(=O)O` [PENICILLIN G]: the IC50 result (in experiment [1]; against Adenosine receptor A3; in experiment [2]; in experiment [3]; on Histamine H2 receptor (cho-k1); at Melanocortin receptor 4) was “Not Active” in each case. Further, the inhibitory constant (Ki) entry in experiment [3] is “Not Active”.
With `CCCN1C[C@H](CSC)C[C@@H]2c3cccc4[nH]cc(c34)C[C@H]21` [PERGOLIDE], the 50% inhibitory concentration (IC50) entry in experiment [1] is “Not Active”; against Adenosine receptor A3, “Not Active”; in experiment [2], “Not Active”; in experiment [3] (read-out: IC50), 3080 nM; against Histamine H2 receptor (cho-k1), “Not Active”; against Melanocortin receptor 4, “Not Active”. Further, in experiment [3] (read-out: Ki), the Ki was found to be 2050 nM.
In the case of `C1CCC(C(CC2CCCCN2)C2CCCCC2)CC1` (centres undefined) [PERHEXILINE], the IC50 result (in experiment [1]; against Adenosine receptor A3; in experiment [2]; in experiment [3]; against Histamine H2 receptor (cho-k1); at Melanocortin receptor 4) was “Not Active” in each case. In addition, in experiment [3], the Ki entry is on record as “Not Active”.
As for `CCOc1ccc(NC(C)=O)cc1` [PHENACETIN], the concentration for half-maximal inhibition (IC50) result (in experiment [1]; against Adenosine receptor A3; in experiment [2]; in experiment [3]; against Histamine H2 receptor (cho-k1); at Melanocortin receptor 4) was “Not Active” each time. In addition, the inhibition constant (Ki) entry in experiment [3] is “Not Active”.
Consider `Cc1ccc(N(CC2=NCCN2)c2cccc(O)c2)cc1` [PHENTOLAMINE], for which the IC50 entry in experiment [1] was “Not Active”; at Adenosine receptor A3, “Not Active”; in experiment [2], “Not Active”; in experiment [3] (read-out: IC50) it was 58 nM; on Histamine H2 receptor (cho-k1), “Not Active”; against Melanocortin receptor 4, “Not Active”. The Ki in experiment [3] (read-out: Ki) is 39 nM.
For the compound `CNNCc1ccc(C(=O)NC(C)C)cc1` [PROCARBAZINE], the IC50 entry (in experiment [1]; at Adenosine receptor A3; in experiment [2]; in experiment [3]; against Histamine H2 receptor (cho-k1); against Melanocortin receptor 4) was “Not Active” in each case. For the same compound, the inhibition constant Ki entry in experiment [3] was “Not Active”.
Take `CN(C)CCCN1c2ccccc2Sc2ccccc21` [PROMAZINE]: the half-maximal inhibitory concentration (IC50) result in experiment [1] was “Not Active”; at Adenosine receptor A3, “Not Active”; in experiment [2] it was “Not Active”; in experiment [3] (read-out: IC50), 1100 nM; at Histamine H2 receptor (read-out: IC50), 2860 nM; on Melanocortin receptor 4, “Not Active”. The results for the Ki (in experiment [3] (read-out: Ki); on Histamine H2 receptor (read-out: Ki)) were 732 nM and 2810 nM, respectively.
Consider `CC(O)CO` (centres undefined) [PROPYLENE GLYCOL], for which the IC50 result (in experiment [1]; on Adenosine receptor A3; in experiment [2]; in experiment [3]; on Histamine H2 receptor (cho-k1); against Melanocortin receptor 4) was “Not Active” each time. Moreover, the Ki entry in experiment [3] is “Not Active”.
Regarding LEAD (II) ACETATE, the half-inhibitory concentration (IC50) result (in experiment [1]; on Adenosine receptor A3; in experiment [2]; in experiment [3]; at Histamine H2 receptor (cho-k1); against Melanocortin receptor 4) was “Not Active” each time. In addition, the inhibition constant (Ki) result (in experiment [1]; on Adenosine receptor A3; in experiment [2]; in experiment [3]; on Histamine H2 receptor (cho-k1); on Melanocortin receptor 4) was “Not Active” in each case.
As to LIPOPOLYSACCHARIDE E. COLI O55:B5, the concentration for half-maximal inhibition (IC50) is 294 nM in experiment [1] (read-out: IC50); “Not Active” against Adenosine receptor A3; “Not Active” in experiment [2]; “Not Active” in experiment [3]; “Not Active” at Histamine H2 receptor (cho-k1); “Not Active” on Melanocortin receptor 4. In addition, the Ki result (at Adenosine receptor A3; in experiment [2]; in experiment [3]; at Histamine H2 receptor (cho-k1); on Melanocortin receptor 4) was “Not Active” throughout.
